Measurements reported in patent US8846788B2, “Polyacetal resin composition, resin molded article, and method and agent for improving polyacetal resin raw material composition” (Mitsubishi Engineering-Plastics Corporation, priority 2008, dated 2014).

Assay: Solubility relative to 100 g of water at 20° C.
Assay type: physicochemical
Conditions: per 100 g of water

| SMILES | solubility relative to 100 g of water |
| --- | --- |
| NNC(=O)CCCCCCCCCCCCCCCCCCC(=O)NN [1,18-octadecane dicarbohydrazide] | ≤ 0.1 g |
| NNC(=O)CCCCCCCCCCC(=O)NN [Dihydrazide compound-2, 1,10-dodecane diacid dihydrazide] | ≤ 0.01 g |

Results, then the compound that gave them:

| solubility relative to 100 g of water | SMILES |
| --- | --- |
| ≤ 0.01 g | NNC(=O)c1ccc(C(=O)NN)cc1 [Dihydrazide compound-1, terephthalic acid dihydrazide] |
| 9.1 g | NNC(=O)CCCCC(=O)NN [Dihydrazide compound-3, adipic acid dihydrazide, reference compound] |
| ≤ 0.2 g | NNC(=O)C(=O)NN [oxalic acid dihydrazide] |

Assay: Vapor pressure at 20° C.
Assay type: physicochemical
Conditions: not given

| SMILES | vapor pressure |
| --- | --- |
| CC(C)(c1ccccc1)c1cc(-n2nc3ccccc3n2)c(O)c(C(C)(C)c2ccccc2)c1 [Tinuvin 234, 2-(2H-benzotriazol-2-yl)-4,6-bis(1-methyl-1-phenylethyl)phenol] | 2.0×10^−10 Pa |
